Measurements as given in patent US11427552B2, “Heterocyclic compounds useful in the treatment of disease” (EPIGEN BIOSCIENCES, INC., priority 2013, dated 2022).
“And” between values parts separate entries of the source, which are not always exact repeats. Equal entries are not always repeated.

Biological target: T1, LPA1R (Homo sapiens, UniProt Q92633)
T1 construct: host or cells: LPA1R expressing cells (Millipore, GPCR Profiler)
Assay: LPA1R Ca2+ flux functional assay (antagonist mode, FLIPR)
Assay type: cell-based
Conditions: inhibition of LPA-stimulated Ca2+ flux, LPA at EC80, LPA1R expressing cells (Millipore); read-out: LPA1 R Antagonist Activity
Protocol: Inhibition of LPA-stimulated Ca^2+ flux was used to assess compound potency using FLIPR technology in a 96 well plate format. The assay buffer used was a modified Hanks Balanced Salt Solution (HBSS) where HBSS was supplemented to contain 20 mM HEPES and 2.5 mM Probenecid at pH7.4 (Millipore, GPCR Profiler®). LPA1R expressing cells (Millipore) were plated and prepared 24 hours prior to assay of test articles. Ca^2+ ion flux was assessed from fluorescence of a Fluo-based No Wash Ca^2+ dye. Antagonist data are generated from plates with LPA concentrations sufficient to generate 80% efficacy [EC80]. Percentage inhibition was calculated from a reduction of efficacy according to concentration of compounds of Formula I-VI. For dose responses the inhibition data was used to calculate compound IC50. The agonist assay was conducted on a FLIPR^TETRA instrument where the test compound(s), vehicle controls, and reference agonist were added to the assay plate after a fluorescence baseline was established. The agonist assay was a total of 180 seconds and was used to assess each compound's ability to activate each GPCR assayed. Upon completion of the agonist assay, the assay plate was removed from the FLIPR^TETRA and incubated at 25° C. for seven (7) minutes. After the incubation period, the assay plate was placed back in the FLIPR^TETRA and the antagonist assay was initiated. Using EC80 potency values determined during the agonist assay, all pre-incubated sample compound wells were challenged with EC80 concentration of reference agonist after establishment of a fluorescence baseline. The antagonist assay was conducted using the same assay plate that was used for the agonist assay. The antagonist assay was conducted on a FLIPR^TETRA instrument where 9 vehicle controls and EC80 concentration of reference agonist were added to appropriate wells. The antagonist assay was a total of 180 seconds and was used to assess each compound's ability to inhibit each GPCR assayed. All assay plate data were subjected to appropriate baseline corrections. After baseline corrections were applied, maximum fluorescence values were exported and data processed to calculate percentage activation (relative to Emax reference agonist and vehicle control values), percentage inhibition (relative to EC80 and vehicle control values), and additional statistical values (i.e. Z′, percentage variation between replicate data values) to assess the quality of each plate. Where assay plate data were rejected, additional experiments were conducted. All dose response curves were generated using GraphPad Prism. The curves were fit by utilizing “Sigmoidal Dose Response (Variable Slope)” equation where the bottom parameter was fixed to “0.” Where appropriate, the top parameter was fixed to “100” to better predict potency values when a full curve was not generated by the concentrations assayed.

T1 sequence (Q92633 whole entry): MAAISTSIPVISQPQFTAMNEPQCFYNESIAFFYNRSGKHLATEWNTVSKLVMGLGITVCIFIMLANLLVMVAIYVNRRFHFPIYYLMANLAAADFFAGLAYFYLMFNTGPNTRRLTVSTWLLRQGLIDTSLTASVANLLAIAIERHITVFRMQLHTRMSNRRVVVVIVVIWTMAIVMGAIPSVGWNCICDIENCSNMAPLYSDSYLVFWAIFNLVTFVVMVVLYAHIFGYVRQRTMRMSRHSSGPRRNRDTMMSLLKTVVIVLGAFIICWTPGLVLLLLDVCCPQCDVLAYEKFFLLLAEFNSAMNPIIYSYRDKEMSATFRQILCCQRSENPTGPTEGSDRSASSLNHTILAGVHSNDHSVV

Compound	IC50
Cc1nn(C)c(-c2ccc(C(=O)N[C@H](Cc3ccc(F)cc3)C(=O)O)cc2)c1NC(=O)O[C@H](C)c1ccccc1 [Example 9, (R)-2-[[4-[2,5-dimethyl-4-((R)-1-phenylethoxycarbonylamino)pyrazol-3-yl]benzoyl]amino]-3-(4-fluorophenyl)propanoic Acid]	> 50 µM
Cc1nn(C)c(-c2ccc(C(=O)N[C@H](Cc3ccccc3)C(=O)O)cc2)c1NC(=O)O[C@H](C)c1ccccc1 [Example 7, (R)-2-[[4-[2,5-dimethyl-4-((R)-1-phenylethoxycarbonylamino)pyrazol-3-yl]benzoyl]amino]-3-phenyl-propanoic Acid]	> 50 µM
Cc1noc(-c2ccc(C(=O)N[C@@H](Cc3ccccc3)C(=O)O)cc2)c1NC(=O)O[C@@H](C)c1ccccc1 [Example 19, (S)-2-{4-[3-Methyl-4-((S)-1-phenyl-ethoxycarbonylamino)-isoxazol-5-yl]-benzoylamino}-3-phenyl-propionic Acid]	> 50 µM
Cc1noc(-c2ccc(C(=O)N[C@H](Cc3ccc(C#N)cc3)C(=O)O)cc2)c1NC(=O)O[C@H](C)c1ccccc1Cl [Example 29, (R)-2-(4-{4-[(R)-1-(2-Chloro-phenyl)-ethoxycarbonylamino]-3-methyl-isoxazol-5-yl}-benzoylamino)-3-(4-cyano-phenyl)-propionic Acid]	1 to 50 µM
Cc1cnn(-c2ccc(C(=O)N[C@H](Cc3ccccc3)C(=O)O)cc2)c1NC(=O)O[C@H](C)c1ccccc1Cl [Example 30, (R)-2-(4-{5-[(R)-1-(2-Chloro-phenyl)-ethoxycarbonylamino]-4-methyl-pyrazol-1-yl}-benzoylamino)-3-phenyl-propionic Acid]	> 50 µM and 1 to 50 µM
Cc1noc(-c2ccc(C(=O)N[C@H](Cc3ccc(Cl)cc3)C(=O)O)cc2)c1NC(=O)O[C@H](C)c1ccccc1Cl [Example 22, (R)-3-(4-Chloro-phenyl)-2-(4-{4-[(R)-1-(2-chloro-phenyl)-ethoxycarbonylamino]-3-methyl-isoxazol-5-yl}-benzoylamino)-propionic Acid]	< 0.3 µM
C[C@@H](OC(=O)Nc1c(F)cnn1-c1ccc(-c2ccc(C3(C(=O)O)CC3)cc2Cl)cc1)c1ccccc1Cl [Example 51, (R)-1-(2-Chloro-4′-{5-[1-(2-chloro-phenyl)-ethoxycarbonylamino]-4-fluoro-pyrazol-1-yl}-biphenyl-4-yl)-cyclopropanecarboxylic Acid]	< 0.3 µM
Cc1noc(-c2ccc(C(=O)N[C@H](Cc3ccc(F)cc3)C(=O)O)cc2)c1NC(=O)O[C@H](C)c1ccccc1Cl [Example 21, (R)-2-(4-{4-[(R)-1-(2-Chloro-phenyl)-ethoxycarbonylamino]-3-methyl-isoxazol-5-yl}-benzoylamino)-3-(4-fluoro-phenyl)-propionic Acid]	< 0.3 µM
Cc1noc(-c2ccc(C(=O)N[C@@H](Cc3ccccc3)C(=O)O)cc2)c1NC(=O)O[C@H](C)c1ccccc1 [Example 6, 2(S)-[[4-[3-methyl-4-((R)-1-phenylethoxycarbonylamino)isoxazol-5-yl]benzoyl]amino]-3-phenyl-propanoic Acid]	> 50 µM
Cc1c(NC(=O)O[C@H](C)c2ccccc2)c(-c2ccc(C(=O)N[C@H](Cc3ccc(F)cc3)C(=O)O)cc2)nn1C [Example 10, (R)-2-[[4-[1,5-dimethyl-4-((R)-1-phenylethoxycarbonylamino)pyrazol-3-yl]benzoyl]amino]-3-(4-fluorophenyl)propanoic acid]	> 50 µM
Cc1c(NC(=O)O[C@H](C)c2ccccc2)c(-c2ccc(-c3ccc(C4(C(=O)O)CC4)cc3)cc2)nn1C [Example 47, (R)-1-[4-[4-[1,5-dimethyl-4-(1-phenylethoxycarbonylamino)pyrazol-3-yl]phenyl]phenyl]cyclopropane Carboxylic Acid]	0.3 to 1 µM

Continued, values first:

IC50	Compound
< 0.3 µM	C[C@@H](OC(=O)Nc1c(F)cnn1-c1ccc(-c2ccc(C3(C(=O)O)CC3)cc2F)cc1)c1ccccc1Cl [Example 50, (R)-1-(4′-{5-[1-(2-Chloro-phenyl)-ethoxycarbonylamino]-4-fluoro-pyrazol-1-yl}-2-fluoro-biphenyl-4-yl)-cyclopropanecarboxylic Acid]
< 0.3 µM	Cc1noc(-c2ccc(CN[C@H](Cc3ccccc3)C(=O)O)cc2)c1NC(=O)O[C@H](C)c1ccccc1 [Example 31, (R)-2-{4-[3-Methyl-4-((R)-1-phenyl-ethoxycarbonylamino)-isoxazol-5-yl]-benzylamino}-3-phenyl-propionic Acid]
< 0.3 µM	Cc1noc(-c2ccc(C(=O)N[C@H](Cc3ccccc3Cl)C(=O)O)cc2)c1NC(=O)O[C@H](C)c1ccccc1Cl [Example 24, (R)-3-(2-Chloro-phenyl)-2-(4-{4-[(R)-1-(2-chloro-phenyl)-ethoxycarbonylamino]-3-methyl-isoxazol-5-yl}-benzoylamino)-propionic Acid]
< 0.3 µM	Cc1cc(C2(C(=O)O)CC2)ccc1-c1ccc(-n2ncc(F)c2NC(=O)O[C@H](C)c2ccccc2Cl)cc1 [Example 52, (R)-1-(4′-{5-[1-(2-Chloro-phenyl)-ethoxycarbonylamino]-4-fluoro-pyrazol-1-yl}-2-methyl-biphenyl-4-yl)-cyclopropanecarboxylic Acid]
< 0.3 µM	Cc1noc(-c2ccc(C(=O)N[C@H](Cc3ccc(C(F)(F)F)cc3)C(=O)O)cc2)c1NC(=O)O[C@H](C)c1ccccc1Cl [Example 28, (R)-2-(4-{4-[(R)-1-(2-Chloro-phenyl)-ethoxycarbonylamino]-3-methyl-isoxazol-5-yl}-benzoylamino)-3-(4-trifluoromethyl-phenyl)-propionic Acid]
< 0.3 µM	Cc1noc(-c2ccc(C(=O)N[C@H](Cc3ccccc3F)C(=O)O)cc2)c1NC(=O)O[C@H](C)c1ccccc1Cl [Example 26, (R)-2-(4-{4-[(R)-1-(2-Chloro-phenyl)-ethoxycarbonylamino]-3-methyl-isoxazol-5-yl}-benzoylamino)-3-(2-fluoro-phenyl)-propionic Acid]
< 0.3 µM	Cc1noc(-c2ccc(C(=O)N[C@H](CC3CC3)C(=O)O)cc2)c1NC(=O)O[C@H](C)c1ccccc1Cl [Example 17, (R)-2-(4-{4-[(R)-1-(2-chloro-phenyl)-ethoxycarbonylamino]-3-methyl-isoxazol-5-yl}-benzoylamino)-3-cyclopropyl-propionic Acid]
